{
  "source": "paper PMC5814162",
  "about": "“Anticoagulants inhibit proteolytic clearance of plasma amyloid beta” (Oncotarget, 2017)",
  "key": {"[1]": {"system": "plasma Aβ42 (FXII-FVII pathway)", "assay": "Plasma Aβ42 level in mice given synthetic Aβ42 after anticoagulant treatment (ELISA)", "assay_type": "in vivo", "conditions": "male C57BL/6 mice, anticoagulant once daily for 5 days (EP 0.1 and 0.5 mg/kg i.p.; DGT 22.5 and 45 mg/kg p.o.), Aβ42 40 μg/kg i.p. 1 h after final dose, blood 6 h later, vs vehicle, mean of n = 3, 'up to' over the two doses", "procedure": "All experiments were approved by the Institutional Animal Care and Use Committee at the Roswell Park Cancer Institute under protocol 1022M. All mice were housed in individually ventilated pathogen-free cage systems equipped with HEPA filtered air supply and reverse osmosis purified water in a centralized vivarium facility. The facility is controlled with fully automated sensors for light (12-hour dark - 12-hour light cycle), temperature (70°F ± 2°F), humidity and airflow. All mice had free access to standard rodent diet (sterilizable Teklad #2018, with 6% fat and alfalfa free). C57BL/6NTac mice (male) were purchased from Taconic and used in two experiments. In the first experiment, mice at 8-9 weeks of age were treated with vehicle or an anticoagulant once daily for 5 days, and 1 h after the final treatment, the mice were treated with a single dose of Aβ42, followed by blood draw 6 h later. Blood was collected from the mice by cardiac puncture at the time of sacrifice by carbon dioxide and was collected into K3 EDTA-containing tubes (Multivette 600 from Sarstedt), from which plasma samples were prepared. […] Plasma concentrations of Aβ were determined by ELISA, which either detects both Aβ40 and Aβ42 [53] or specifically measures each peptide. […] Plasma concentration of FI was also measured by ELISA using a kit from GenWay Biotech. […]"}, "FXII-FVII pathway [2]": {"system": "FXII-FVII pathway", "assay": "FXII-FVII pathway activation in J20 mice and WT littermates, effect of EP (Western blotting, FI by ELISA)", "assay_type": "in vivo", "conditions": "EP 0.5 mg/kg i.p. once daily 5 days; for effect of EP on coagulation factor activation in J20 mice: blood 6 h after final treatment; for effect of EP on plasma FI level in WT littermates: ELISA", "procedure": "(§1) J20 mice were purchased from the Mutant Mouse Resource & Research Centers (MMRRC) via the Jackson Laboratory. Hemizygous male J20 mice in C57BL/6J background were bred with WT female mice (C57BL/6J, also from Jackson Laboratory). F1 hemizygous J20 mice were identified by PCR genotyping based on the Jackson Laboratory protocol (https://www/jax.org/strain/006293) and used for experiments. J20 mice and their WT littermates (at the age of 1, 3 and 6 months, male and female) were treated with EP or vehicle i.p. once daily for 5 days, and at 6 h after the last treatment, blood was drawn from the mice.\n(§2) Plasma concentrations of Aβ were determined by ELISA, which either detects both Aβ40 and Aβ42 [53] or specifically measures each peptide. In the latter case, ELISA kits from Invitrogen (KHB3481 and KHB3441) were used. Plasma concentration of FI was also measured by ELISA using a kit from GenWay Biotech. The commercial kits were used by following the manufacturers’ instructions.\n(§3) Each plasma sample (7.5 μl of plasma per sample) was mixed with 4x loading dye, heated at 95°C for 5 min, and resolved by SDS-PAGE. The separated proteins were transferred to polyvinylidene fluoride membrane, probed with specific antibodies, and detected using Luminata Classico or Luminata Cresendo (Millipore)."}, "[3]": {"system": "brain amyloid plaque load", "conditions": "Tg2576 mice; chronic treatment with EP at the same dose regimen (∼2.5 mg/kg, i.p., 3 times weekly); cited from earlier work", "source_text": "(§4) By inhibiting the FXII-FVII pathway, anticoagulants present an interesting dichotomy in impacting AD: Inhibiting procoagulant activity, potentially slowing or ameliorating AD, but also inhibiting plasma Aβ degradation, potentially contributing to brain Aβ accumulation. Indeed, increased coagulation is implicated in AD [42], but there is also evidence that peripheral Aβ moves to the brain [43]. The exact effect of anticoagulants on AD remains unclear. Treatment of AD mice (APP23 mice) with EP (∼2.5 mg/kg, i.p., 3 times weekly) for 6 months reduced brain astrocyte activation and Aβ accumulat ..."}, "[4]": {"system": "brain astrocyte activation and Aβ accumulation", "conditions": "APP23 mice; EP ∼2.5 mg/kg, i.p., 3 times weekly for 6 months; cited from earlier work", "source_text": "as §4"}, "FXII-FVII pathway [5]": {"system": "FXII-FVII pathway", "assay": "Plasma coagulation factor activation in mice treated with EP and/or Aβ40 (Western blotting, FI by ELISA)", "assay_type": "in vivo", "conditions": "male C57BL/6 mice; EP 0.5 mg/kg i.p. once daily 5 days, then Aβ40 40 μg/kg i.p.; blood 6 h later", "procedure": "All experiments were approved by the Institutional Animal Care and Use Committee at the Roswell Park Cancer Institute under protocol 1022M. All mice were housed in individually ventilated pathogen-free cage systems equipped with HEPA filtered air supply and reverse osmosis purified water in a centralized vivarium facility. The facility is controlled with fully automated sensors for light (12-hour dark – 12-hour light cycle), temperature (70°F ± 2°F), humidity and airflow. All mice had free access to standard rodent diet (sterilizable Teklad #2018, with 6% fat and alfalfa free). C57BL/6NTac mice (male) were purchased from Taconic and used in two experiments. […]\n(§5) Plasma concentrations of Aβ were determined by ELISA, which either detects both Aβ40 and Aβ42 [53] or specifically measures each peptide. […] Plasma concentration of FI was also measured by ELISA using a kit from GenWay Biotech. […]\nas §3"}, "plasma Aβ40": {"system": "plasma Aβ40", "assay": "Plasma Aβ40 level in J20 mice and WT littermates, ELISA specific for Aβ40", "assay_type": "in vivo", "conditions": "3 months of age, EP 0.5 mg/kg i.p. once daily 5 days", "procedure": "as §1, §2"}, "plasma Aβ42": {"system": "plasma Aβ42", "assay": "Plasma Aβ42 level in J20 mice and WT littermates, ELISA specific for Aβ42", "assay_type": "in vivo", "conditions": "3 months of age, EP 0.5 mg/kg i.p. once daily 5 days", "procedure": "as §1, §2"}, "plasma Aβ": {"system": "plasma Aβ", "assay": "Plasma Aβ level in J20 mice and WT littermates, ELISA measuring both Aβ40 and Aβ42", "assay_type": "in vivo", "conditions": "EP 0.5 mg/kg i.p. once daily 5 days", "procedure": "as §1, §2"}, "[6]": {"system": "plasma Aβ40 / endogenous Aβ (FXII-FVII pathway)", "assay": "Plasma Aβ level in mice treated with EP and/or Aβ40 (ELISA)", "assay_type": "in vivo", "conditions": "male C57BL/6 mice, EP 0.5 mg/kg i.p. once daily 5 days, n = 3", "procedure": "All experiments were approved by the Institutional Animal Care and Use Committee at the Roswell Park Cancer Institute under protocol 1022M. All mice were housed in individually ventilated pathogen-free cage systems equipped with HEPA filtered air supply and reverse osmosis purified water in a centralized vivarium facility. The facility is controlled with fully automated sensors for light (12-hour dark – 12-hour light cycle), temperature (70°F ± 2°F), humidity and airflow. All mice had free access to standard rodent diet (sterilizable Teklad #2018, with 6% fat and alfalfa free). C57BL/6NTac mice (male) were purchased from Taconic and used in two experiments. In the first experiment, mice at 8–9 weeks of age were treated with vehicle or an anticoagulant once daily for 5 days, and 1 h after the final treatment, the mice were treated with a single dose of Aβ42, followed by blood draw 6 h later. Blood was collected from the mice by cardiac puncture at the time of sacrifice by carbon dioxide and was collected into K3 EDTA-containing tubes (Multivette 600 from Sarstedt), from which plasma samples were prepared. […]\nas §5"}},
  "data": [
    {"molecule": "[H]/N=C(/N)c1ccc(NCc2nc3cc(C(=O)N(CCC(=O)O)c4ccccn4)ccc3n2C)cc1", "note": "[DGT, dabigatran]", "values": [
      {"measurement": "increase in plasma level of Aβ42", "setting": "[1]", "value": "up to 21.3 fold"}
    ]},
    {"molecule": "enoxaparin [EP]", "values": [
      {"measurement": "effect of EP on coagulation factor activation in J20 mice", "setting": "FXII-FVII pathway [2]; 1 month of age, male and female", "value": "greatly attenuated the activation of FX, FII, FVII and FI"},
      {"measurement": "effect of EP on coagulation factor activation in J20 mice", "setting": "FXII-FVII pathway [2]; 3 and 6 months of age", "value": "strongly inhibited the activation of FX, FII, FVII and FI"},
      {"measurement": "effect of EP on plasma FI level in WT littermates", "setting": "FXII-FVII pathway [2]; 1 month of age", "value": "only slightly elevated FI level"},
      {"measurement": "effect of EP on plasma FI level in WT littermates", "setting": "FXII-FVII pathway [2]; 3 and 6 months of age", "value": "slightly elevate FI level"},
      {"measurement": "effect on brain amyloid plaque load", "setting": "[3]", "value": "significantly increased brain amyloid plaque load"},
      {"measurement": "effect on brain astrocyte activation and Aβ accumulation", "setting": "[4]", "value": "reduced brain astrocyte activation and Aβ accumulation"},
      {"measurement": "effect of EP on Aβ40-induced activation of coagulation factors", "setting": "FXII-FVII pathway [5]", "value": "prevents the activation of FX, FII, FVII and FI"},
      {"measurement": "increase in plasma level of Aβ42", "setting": "[1]", "value": "up to 73.3 fold"},
      {"measurement": "ratio of EP-induced increase in plasma Aβ level in J20 mice over that in the WT littermates", "setting": "plasma Aβ40; Aβ40, female", "value": 40.1},
      {"measurement": "ratio of EP-induced increase in plasma Aβ level in J20 mice over that in the WT littermates", "setting": "plasma Aβ40; Aβ40, male", "value": 45.7},
      {"measurement": "increase in plasma level of Aβ40 after EP treatment", "setting": "plasma Aβ40; J20 mice, female", "value": 4.3, "unit": "fold"},
      {"measurement": "increase in plasma level of Aβ40 after EP treatment", "setting": "plasma Aβ40; J20 mice, male", "value": 3.6, "unit": "fold"},
      {"measurement": "increase in plasma level of Aβ40 after EP treatment", "setting": "plasma Aβ40; WT littermates, female", "value": 1.9, "unit": "fold"},
      {"measurement": "increase in plasma level of Aβ40 after EP treatment", "setting": "plasma Aβ40; WT littermates, male", "value": 1.6, "unit": "fold"},
      {"measurement": "ratio of EP-induced increase in plasma Aβ level in J20 mice over that in the WT littermates", "setting": "plasma Aβ42; Aβ42, female", "value": 63.6},
      {"measurement": "ratio of EP-induced increase in plasma Aβ level in J20 mice over that in the WT littermates", "setting": "plasma Aβ42; Aβ42, male", "value": 47.3},
      {"measurement": "increase in plasma level of Aβ42 after EP treatment", "setting": "plasma Aβ42; J20 mice, female", "value": 4.7, "unit": "fold"},
      {"measurement": "increase in plasma level of Aβ42 after EP treatment", "setting": "plasma Aβ42; J20 mice, male", "value": 4.3, "unit": "fold"},
      {"measurement": "increase in plasma level of Aβ42 after EP treatment", "setting": "plasma Aβ42; WT littermates, female", "value": 1.6, "unit": "fold"},
      {"measurement": "increase in plasma level of Aβ42 after EP treatment", "setting": "plasma Aβ42; WT littermates, male", "value": 1.7, "unit": "fold"},
      {"measurement": "ratio of EP-induced increase in plasma Aβ level in J20 mice over that in the WT littermates", "setting": "plasma Aβ; 1 month of age, female", "value": 8.7},
      {"measurement": "ratio of EP-induced increase in plasma Aβ level in J20 mice over that in the WT littermates", "setting": "plasma Aβ; 1 month of age, male", "value": 9.3},
      {"measurement": "ratio of EP-induced increase in plasma Aβ level in J20 mice over that in the WT littermates", "setting": "plasma Aβ; 3 months of age, female", "value": 56.9},
      {"measurement": "ratio of EP-induced increase in plasma Aβ level in J20 mice over that in the WT littermates", "setting": "plasma Aβ; 3 months of age, male", "value": 47.5},
      {"measurement": "ratio of EP-induced increase in plasma Aβ level in J20 mice over that in the WT littermates", "setting": "plasma Aβ; 6 months of age, female", "value": 51.2},
      {"measurement": "ratio of EP-induced increase in plasma Aβ level in J20 mice over that in the WT littermates", "setting": "plasma Aβ; 6 months of age, male", "value": 40.4},
      {"measurement": "increase in plasma Aβ concentration after EP treatment", "setting": "plasma Aβ; J20 mice, 1 month of age, male or female, n = 3", "value": 2.3, "unit": "fold"},
      {"measurement": "increase in plasma Aβ level after EP treatment", "setting": "plasma Aβ; J20 mice, 3 months of age, female, n = 3", "value": 4.2, "unit": "fold"},
      {"measurement": "increase in plasma Aβ level after EP treatment", "setting": "plasma Aβ; J20 mice, 3 months of age, male, n = 3", "value": 3.7, "unit": "fold"},
      {"measurement": "increase in plasma Aβ level after EP treatment", "setting": "plasma Aβ; J20 mice, 6 months of age, female, n = 3", "value": 3.6, "unit": "fold"},
      {"measurement": "increase in plasma Aβ level after EP treatment", "setting": "plasma Aβ; J20 mice, 6 months of age, male, n = 3", "value": 3.4, "unit": "fold"},
      {"measurement": "elevation of plasma Aβ concentration", "setting": "plasma Aβ; WT littermates, regardless of age or gender, blood 6 h after final treatment, n = 3", "value": "approximately 1.6 fold"},
      {"measurement": "increase in plasma level of exogenously administered Aβ40", "setting": "[6]; Aβ40 40 μg/kg i.p. 1 h after last dose, blood 6 h later", "value": 77.4, "unit": "fold"},
      {"measurement": "elevation of plasma level of endogenous Aβ", "setting": "[6]; no Aβ40 injected", "value": 1.7, "unit": "fold"}
    ]}
  ]
}
